pIC50: −log10 of the molar value.

This is an account of results in article PMC4216204 (Journal of Medicinal Chemistry, 2014).

Assay [1] relates to CRL-2351 breast cancer cells. As to the kind of experiment: Sulforhodamine B. Conditions: Homo sapiens, 120 h, read-out: SRB assay IC50 CRL-2351. The format is cell-based.
The test system of assay [2] is xenograft tumor. The settings on record: mouse model of human cancer; cited from earlier work.
Assay [3] concerns AML progenitors. The settings on record: ref 23 (Tamburini et al.); cited from earlier work.

With `COc1cc2c(cc1OC)-c1nc(N/N=C(/Cc3ccccc3[N+](=O)[O-])C(=O)O)sc1CO2` [(Z)-46a, 2-(2-(7,8-Dimethoxy-4H-chromeno[4,3-d]thiazol-2-yl)hydrazono)-3-(2-nitrophenyl)propanoic Acid], in assay [1], the pIC50 was less than 4.70.
Still for that read-out and setting: next, `COc1cc2c(cc1OC)-c1nc(N/N=C(/Cc3ccccc3[N+](=O)[O-])C(=O)O)sc1CC2` [(Z)-46c, 2-(2-(7,8-Dimethoxy-4,5-dihydronaphtho[1,2-d]thiazol-2-yl)hydrazono)-3-(2-nitrophenyl)propanoic Acid]: less than 4.70; `COc1cc2c(cc1OC)-c1nc(N/N=C(\Cc3ccccc3[N+](=O)[O-])C(=O)O)sc1CO2` [(E)-46a, 2-(2-(7,8-Dimethoxy-4H-chromeno[4,3-d]thiazol-2-yl)hydrazono)-3-(2-nitrophenyl)propanoic Acid]: less than 4.70.
For the compound `O=C(O)C(Cc1ccccc1[N+](=O)[O-])=NNc1nc(-c2ccc(Cl)c(Cl)c2)cs1` [compound 1, (2-(2-(4-(3,4-dichlorophenyl)thiazol-2-yl)hydrazono)-3-(2-nitrophenyl)propanoic acid)], the “inhibition of xenograft tumor growth” value in assay [2] is on record as “effectively inhibits xenograft tumor growth”. Moreover, the “clonogenic growth of AML progenitors” value in assay [3] is “dramatically reduces the clonogenic growth of AML progenitors”.
On to `COc1ccc2c(c1OC)OCc1sc(N/N=C(\Cc3ccccc3[N+](=O)[O-])C(=O)O)nc1-2` [(E)-46b, 2-(2-(6,7-Dimethoxy-4H-chromeno[4,3-d]thiazol-2-yl)hydrazono)-3-(2-nitrophenyl)propanoic Acid], for which the pIC50 in assay [1] was less than 4.70.
Same read-out and setting: with `COc1cc2c(cc1OC)-c1nc(N/N=C(\Cc3ccccc3[N+](=O)[O-])C(=O)O)sc1CC2` [(E)-46c, 2-(2-(7,8-Dimethoxy-4,5-dihydronaphtho[1,2-d]thiazol-2-yl)hydrazono)-3-(2-nitrophenyl)propanoic Acid] the figure was less than 4.70; with `COc1ccc2c(c1OC)OCc1sc(N/N=C(/Cc3ccccc3[N+](=O)[O-])C(=O)O)nc1-2` [(Z)-46b, 2-(2-(6,7-Dimethoxy-4H-chromeno[4,3-d]thiazol-2-yl)hydrazono)-3-(2-nitrophenyl)propanoic Acid], less than 4.70.

Broadly, the pIC50 is −log10 of the IC50, conventionally taken in molar units.
